In patent publication US20160375006A1, “USES OF PARALOG-SELECTIVE INHIBITORS OF GSK3 KINASES” (priority 2012, published 2016):
Where two headings read alike, the source gives them in different places.

Experiments:
MST1 = MST1 (Homo sapiens, UniProt Q13043)
Procedure: (§1) This was completed utilizing one of two assays depending on the kinase being examined.
(§2) A solution of IMAP binding reagent (IMAP Screening Express kit; Molecular Devices) (60 μL) was added to each well and incubated for 30 minutes.
(§3) A solution of termination buffer (QuickScout Screening assist MSA; Carna Biosciences) (60 μL) was added to each well. The entire reaction mixture was then applied to a LabChip3000 system (Caliper Life Science) and the product and substrate peptide peaks were separated and quantified.
(§4) The assay utilized was identical to that of the single point inhibitory activity determination (MSA) but run in dose response. […] A solution of termination buffer (QuickScout Screening assist MSA; Carna Biosciences) (60 μL) was added to each well. The entire reaction mixture was then applied to a LabChip3000 system (Caliper Life Science) and the product and substrate peptide peaks were separated and quantified.

JNK3 = JNK3 (Homo sapiens, UniProt P53779)
Procedure: as §1, §2, §3

PGK = PGK (Homo sapiens, UniProt Q13976)
Procedure: as §1, §2, §3, §4

MINK = MINK (Homo sapiens, UniProt Q8N4C8)
Procedure: as §1, §2, §3, §4

FGFR4(V550E) = FGFR4(V550E) (Homo sapiens, UniProt P22455, V550E)
Procedure: as §1, §2, §3, §4

CK1α = CK1α (Homo sapiens, UniProt P48729)
Procedure: as §1, §3
The assay utilized was identical to that of the single point inhibitory activity determination (MSA) but run in dose response.

CaMK1α = CaMK1α (Homo sapiens, UniProt Q14012)
Procedure: as §1, §2, §3, §4

ALK(R1275Q) = ALK(R1275Q) (Homo sapiens, UniProt Q9UM73, R1275Q)
Procedure: as §1, §2, §3, §4

KDR = KDR (Homo sapiens, UniProt P35968)
Procedure: as §1, §2, §3, §4

TAK1-TAB1_Cascade = TAK1-TAB1_Cascade (Homo sapiens, UniProt O43318)
Procedure: as §1, §2, §3, §4

NuaK1 = NuaK1 (Homo sapiens, UniProt O60285)
Procedure: as §1, §2, §3, §4

CDK2/CycA2 = CDK2/CycA2 (Homo sapiens, UniProt P24941)
Procedure: as §1, §2, §3, §4

BRK = BRK (Homo sapiens, UniProt Q13882)
ROCK1 = ROCK1 (Homo sapiens, UniProt Q13464)
Sequence of ROCK1 (Q13464 whole entry): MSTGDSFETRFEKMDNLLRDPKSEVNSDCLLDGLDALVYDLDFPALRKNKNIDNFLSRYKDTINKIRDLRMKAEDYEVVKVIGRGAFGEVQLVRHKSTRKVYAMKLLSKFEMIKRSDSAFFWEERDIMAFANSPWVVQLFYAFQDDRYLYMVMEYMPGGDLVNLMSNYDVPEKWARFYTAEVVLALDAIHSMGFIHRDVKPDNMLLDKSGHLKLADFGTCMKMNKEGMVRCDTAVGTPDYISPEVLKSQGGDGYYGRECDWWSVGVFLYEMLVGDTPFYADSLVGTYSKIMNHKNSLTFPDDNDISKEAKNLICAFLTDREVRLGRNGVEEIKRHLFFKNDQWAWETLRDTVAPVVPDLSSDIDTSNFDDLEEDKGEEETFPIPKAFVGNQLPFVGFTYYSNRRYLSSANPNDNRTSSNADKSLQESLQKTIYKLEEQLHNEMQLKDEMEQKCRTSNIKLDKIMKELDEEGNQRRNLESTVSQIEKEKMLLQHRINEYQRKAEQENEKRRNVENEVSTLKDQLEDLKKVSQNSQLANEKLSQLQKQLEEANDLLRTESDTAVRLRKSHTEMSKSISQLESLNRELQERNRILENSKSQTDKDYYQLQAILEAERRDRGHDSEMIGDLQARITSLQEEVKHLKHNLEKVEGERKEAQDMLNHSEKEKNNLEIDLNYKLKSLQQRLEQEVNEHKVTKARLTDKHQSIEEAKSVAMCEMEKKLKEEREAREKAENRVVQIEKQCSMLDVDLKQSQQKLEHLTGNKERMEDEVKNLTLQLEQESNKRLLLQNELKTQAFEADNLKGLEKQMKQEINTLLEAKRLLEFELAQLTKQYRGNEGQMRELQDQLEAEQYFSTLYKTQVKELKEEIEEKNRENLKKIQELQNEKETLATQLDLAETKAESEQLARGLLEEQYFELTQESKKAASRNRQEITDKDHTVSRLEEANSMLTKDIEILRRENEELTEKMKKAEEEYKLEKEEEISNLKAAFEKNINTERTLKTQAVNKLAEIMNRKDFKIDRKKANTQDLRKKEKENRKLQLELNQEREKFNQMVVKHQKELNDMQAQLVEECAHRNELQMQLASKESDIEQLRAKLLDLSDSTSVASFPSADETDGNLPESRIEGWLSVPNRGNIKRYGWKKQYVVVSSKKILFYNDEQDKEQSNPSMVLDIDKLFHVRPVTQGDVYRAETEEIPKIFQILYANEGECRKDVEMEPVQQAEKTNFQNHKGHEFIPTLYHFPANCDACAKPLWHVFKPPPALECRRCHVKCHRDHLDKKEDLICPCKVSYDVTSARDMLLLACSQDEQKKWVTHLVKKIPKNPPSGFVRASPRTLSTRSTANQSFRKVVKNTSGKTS
Procedure: as §1, §2, §3, §4

GSK3β = GSK3β (Homo sapiens, UniProt P49841)
Sequence of GSK3β (P49841 whole entry): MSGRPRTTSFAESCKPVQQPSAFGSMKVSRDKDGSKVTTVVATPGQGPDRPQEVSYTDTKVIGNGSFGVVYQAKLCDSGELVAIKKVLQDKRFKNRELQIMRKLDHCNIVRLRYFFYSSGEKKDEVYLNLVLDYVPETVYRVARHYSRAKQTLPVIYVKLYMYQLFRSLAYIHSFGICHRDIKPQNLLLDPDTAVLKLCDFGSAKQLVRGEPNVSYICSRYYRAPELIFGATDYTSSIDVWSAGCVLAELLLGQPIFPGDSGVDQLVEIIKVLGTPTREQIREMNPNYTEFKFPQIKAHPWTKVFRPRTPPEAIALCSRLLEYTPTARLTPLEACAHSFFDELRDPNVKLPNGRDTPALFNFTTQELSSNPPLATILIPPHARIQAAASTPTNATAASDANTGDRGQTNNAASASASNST
Procedure: as §1, §2, §3, §4

EGFR(d746-750/T790M) = EGFR(d746-750/T790M) (Homo sapiens, UniProt P00533, DEL746-750/T790M)
Procedure: as §1, §2, §3, §4

IKKβ = IKKβ (Homo sapiens, UniProt O14920)
Procedure: as §1, §2, §3, §4

SPHK1 = SPHK1 (Homo sapiens, UniProt Q9NYA1)
Procedure: as §1, §2, §3, §4

MARK1 = MARK1 (Homo sapiens, UniProt Q9P0L2)
Procedure: as §1, §2, §3, §4

RSK4 = RSK4 (Homo sapiens, UniProt Q9UK32)
Procedure: as §1, §2, §3

RET(S891A) = RET(S891A) (Homo sapiens, UniProt P07949, S891A)
Sequence of RET(S891A) (P07949 29-1114 S891A): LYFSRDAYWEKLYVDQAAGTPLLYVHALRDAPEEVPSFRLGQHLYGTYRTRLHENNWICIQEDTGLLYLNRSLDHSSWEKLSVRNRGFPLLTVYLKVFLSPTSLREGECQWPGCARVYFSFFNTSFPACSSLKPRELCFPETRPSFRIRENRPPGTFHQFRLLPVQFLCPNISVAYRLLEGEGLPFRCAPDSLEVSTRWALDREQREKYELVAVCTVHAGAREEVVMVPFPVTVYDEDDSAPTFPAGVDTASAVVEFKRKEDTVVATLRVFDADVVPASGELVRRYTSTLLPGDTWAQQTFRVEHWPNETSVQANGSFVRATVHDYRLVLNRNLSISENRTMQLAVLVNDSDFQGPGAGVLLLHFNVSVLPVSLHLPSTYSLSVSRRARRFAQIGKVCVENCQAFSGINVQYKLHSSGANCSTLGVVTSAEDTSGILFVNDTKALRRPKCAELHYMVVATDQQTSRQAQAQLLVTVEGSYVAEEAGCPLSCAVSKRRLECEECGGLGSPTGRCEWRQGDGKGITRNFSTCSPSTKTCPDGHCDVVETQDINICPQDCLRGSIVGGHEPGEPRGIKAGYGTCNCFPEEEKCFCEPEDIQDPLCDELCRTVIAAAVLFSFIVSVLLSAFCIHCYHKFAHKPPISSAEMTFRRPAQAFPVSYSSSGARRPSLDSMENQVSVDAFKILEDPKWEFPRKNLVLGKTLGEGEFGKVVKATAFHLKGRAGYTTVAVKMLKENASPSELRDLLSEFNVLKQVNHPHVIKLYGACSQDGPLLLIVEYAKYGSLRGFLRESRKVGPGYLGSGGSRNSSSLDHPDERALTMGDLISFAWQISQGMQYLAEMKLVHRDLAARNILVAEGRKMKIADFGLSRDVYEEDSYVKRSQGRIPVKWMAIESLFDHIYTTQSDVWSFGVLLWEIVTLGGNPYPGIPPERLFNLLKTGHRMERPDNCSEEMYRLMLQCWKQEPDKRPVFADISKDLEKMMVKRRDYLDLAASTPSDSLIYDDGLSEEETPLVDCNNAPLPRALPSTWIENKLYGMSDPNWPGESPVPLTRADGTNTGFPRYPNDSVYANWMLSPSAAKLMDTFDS
Procedure: as §1, §2, §3, §4

CDC2/CycB1 = CDC2/CycB1 (Homo sapiens, UniProt P06493)
Procedure: as §1, §2, §3, §4

WNK3 = WNK3 (Homo sapiens, UniProt Q9BYP7)
Procedure: as §1, §2, §3, §4

BRAF(V600E)_Cascade = BRAF(V600E)_Cascade (Homo sapiens, UniProt P15056, V600E)
Procedure: as §1, §2, §3

BLK = BLK (Homo sapiens, UniProt P51451)
Sequence of BLK (P51451 whole entry): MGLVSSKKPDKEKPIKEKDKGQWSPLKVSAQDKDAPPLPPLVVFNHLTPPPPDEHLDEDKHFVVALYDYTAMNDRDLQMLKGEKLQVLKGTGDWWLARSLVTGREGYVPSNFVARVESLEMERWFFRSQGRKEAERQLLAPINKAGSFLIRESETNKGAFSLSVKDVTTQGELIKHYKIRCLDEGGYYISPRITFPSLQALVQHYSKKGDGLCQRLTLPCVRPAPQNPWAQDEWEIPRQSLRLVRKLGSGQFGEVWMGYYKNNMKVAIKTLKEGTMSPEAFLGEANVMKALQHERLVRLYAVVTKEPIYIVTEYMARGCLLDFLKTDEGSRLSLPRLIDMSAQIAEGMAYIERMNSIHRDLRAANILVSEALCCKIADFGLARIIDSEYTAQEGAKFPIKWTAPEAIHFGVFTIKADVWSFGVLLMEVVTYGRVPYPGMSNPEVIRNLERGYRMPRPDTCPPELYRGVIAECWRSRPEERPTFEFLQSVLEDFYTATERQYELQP
Procedure: as §1, §2, §3, §4

RET(Y791F) = RET(Y791F) (Homo sapiens, UniProt P07949, Y791F)
Sequence of RET(Y791F) (P07949 29-1114 Y791F): as the sequence (P07949 29-1114 S891A) above, with Y763F, A863S counted along it
Procedure: as §1, §2, §3, §4

PDHK4 = PDHK4 (Homo sapiens, UniProt Q16654)
Sequence of PDHK4 (Q16654 whole entry): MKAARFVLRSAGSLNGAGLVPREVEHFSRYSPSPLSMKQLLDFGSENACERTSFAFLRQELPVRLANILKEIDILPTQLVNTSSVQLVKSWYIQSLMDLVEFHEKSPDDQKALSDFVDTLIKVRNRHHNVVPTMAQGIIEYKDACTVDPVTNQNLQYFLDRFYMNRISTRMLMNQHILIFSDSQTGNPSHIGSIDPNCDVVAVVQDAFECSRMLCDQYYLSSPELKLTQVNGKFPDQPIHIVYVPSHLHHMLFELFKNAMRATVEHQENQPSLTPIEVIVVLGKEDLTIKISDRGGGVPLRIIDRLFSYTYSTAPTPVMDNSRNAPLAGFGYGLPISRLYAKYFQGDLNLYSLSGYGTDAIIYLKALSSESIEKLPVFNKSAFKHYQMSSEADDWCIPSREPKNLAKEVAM
Procedure: as §1, §2, §3, §4

EPHB3 = EPHB3 (Homo sapiens, UniProt P54753)
Procedure: as §1, §2, §3, §4

PKD2 = PKD2 (Homo sapiens, UniProt Q9BZL6)
Procedure: as §1, §2, §3, §4

HIPK3 = HIPK3 (Homo sapiens, UniProt Q9H422)
Procedure: as §1, §2, §3, §4

MAP2K6_Cascade = MAP2K6_Cascade (Homo sapiens, UniProt P52564)
Procedure: as §1, §2, §3, §4

FRK = FRK (Homo sapiens, UniProt P42685)
Procedure: as §1, §2, §3, §4

TSSK2 = TSSK2 (Homo sapiens, UniProt Q96PF2)
Procedure: as §1, §2, §3

HIPK4 = molecular target: T1, HIPK4 (Homo sapiens, UniProt Q8NE63); assay: Carna kinase panel; assay type: biochemical
T1 construct: purchased Carna Biosciences
Procedure: as §1, §2, §3

NEK7 = NEK7 (Homo sapiens, UniProt Q8TDX7)
Procedure: as §1, §2, §3, §4

CaMK2γ = CaMK2γ (Homo sapiens, UniProt Q13555)
Procedure: as §1, §2, §3, §4

skMLCK = skMLCK (Homo sapiens, UniProt Q9H1R3)
Procedure: as §1, §2, §3, §4

DLK_Cascade = DLK_Cascade (Homo sapiens, UniProt Q12852)
Sequence of DLK_Cascade (Q12852 whole entry): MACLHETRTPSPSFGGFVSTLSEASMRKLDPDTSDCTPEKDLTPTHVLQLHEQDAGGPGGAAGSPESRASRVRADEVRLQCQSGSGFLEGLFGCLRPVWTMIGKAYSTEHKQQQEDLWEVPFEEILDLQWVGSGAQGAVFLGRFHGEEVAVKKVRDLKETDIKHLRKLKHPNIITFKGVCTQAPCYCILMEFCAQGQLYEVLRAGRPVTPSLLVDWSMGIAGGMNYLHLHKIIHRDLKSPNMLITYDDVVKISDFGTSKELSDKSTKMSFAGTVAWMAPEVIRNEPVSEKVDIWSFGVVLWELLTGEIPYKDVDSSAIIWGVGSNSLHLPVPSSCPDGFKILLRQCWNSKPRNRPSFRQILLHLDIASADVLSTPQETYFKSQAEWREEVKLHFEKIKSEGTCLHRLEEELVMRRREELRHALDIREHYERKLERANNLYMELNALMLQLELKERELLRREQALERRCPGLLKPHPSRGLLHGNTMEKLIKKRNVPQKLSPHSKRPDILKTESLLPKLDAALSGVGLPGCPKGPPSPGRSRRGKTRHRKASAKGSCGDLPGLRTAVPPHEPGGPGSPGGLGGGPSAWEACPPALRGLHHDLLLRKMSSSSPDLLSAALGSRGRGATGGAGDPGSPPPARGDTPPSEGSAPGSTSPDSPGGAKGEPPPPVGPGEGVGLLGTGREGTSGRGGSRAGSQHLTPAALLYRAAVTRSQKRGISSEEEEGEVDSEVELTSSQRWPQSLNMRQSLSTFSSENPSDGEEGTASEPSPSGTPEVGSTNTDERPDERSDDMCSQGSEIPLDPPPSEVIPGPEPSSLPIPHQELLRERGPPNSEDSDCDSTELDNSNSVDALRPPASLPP
Procedure: as §1, §2, §3, §4

RET(M918T) = RET(M918T) (Homo sapiens, UniProt P07949, M918T)
Sequence of RET(M918T) (P07949 29-1114 M918T): as the sequence (P07949 29-1114 S891A) above, with A863S, M890T counted along it
Procedure: as §1, §2, §3, §4

Sequence of CK1α (P48729 whole entry): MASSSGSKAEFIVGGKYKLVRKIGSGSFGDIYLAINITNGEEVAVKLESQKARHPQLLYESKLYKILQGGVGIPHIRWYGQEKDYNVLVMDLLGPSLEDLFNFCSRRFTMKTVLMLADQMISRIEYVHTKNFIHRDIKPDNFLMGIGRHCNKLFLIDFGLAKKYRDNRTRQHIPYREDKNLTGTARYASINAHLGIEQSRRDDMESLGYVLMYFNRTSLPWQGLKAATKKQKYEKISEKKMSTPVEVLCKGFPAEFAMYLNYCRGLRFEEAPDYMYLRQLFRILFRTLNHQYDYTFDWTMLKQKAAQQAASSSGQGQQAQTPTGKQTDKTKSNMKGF

CC[C@@]1(c2ccccc2)C2=C(CC(C)(C)CC2=O)Nc2n[nH]cc21 [BRD0705]
% Inhibition at 10 μM (MST1): −7.3%
% Inhibition at 10 μM (JNK3): −3.4%
% Inhibition at 10 μM (PGK): −2.1%
% Inhibition at 10 μM (MINK): 2.4%
% Inhibition at 10 μM (FGFR4(V550E)): −0.5%
% Inhibition at 10 μM (CK1α): 6.0%
% Inhibition at 10 μM (CaMK1α): −4.7%
% Inhibition at 10 μM (ALK(R1275Q)): 0.7%
% Inhibition at 10 μM (KDR): −4.8%
% Inhibition at 10 μM (TAK1-TAB1_Cascade): 5.0%
% Inhibition at 10 μM (NuaK1): −2.0%
% Inhibition at 10 μM (CDK2/CycA2; CDK2/CycA2): 65.3%
IC50 (CDK2/CycA2; read-out: IC50 CDK2/CycA2): 6870 nM
% Inhibition at 10 μM (BRK): −1.4%
% Inhibition at 10 μM (ROCK1): −2.0%
% Inhibition at 10 μM (GSK3β): 96.5%
IC50 (GSK3β; read-out: IC50 GSK3β): 488 nM
% Inhibition at 10 μM (EGFR(d746-750/T790M)): −3.5%
% Inhibition at 10 μM (IKKβ): −4.0%
% Inhibition at 10 μM (SPHK1): −20.5%
% Inhibition at 10 μM (MARK1): 3.1%
% Inhibition at 10 μM (RSK4): 1.1%
% Inhibition at 10 μM (RET(S891A)): −3.1%
% Inhibition at 10 μM (CDC2/CycB1): 17.2%
% Inhibition at 10 μM (WNK3): −3.7%
% Inhibition at 10 μM (BRAF(V600E)_Cascade): 7.0%
% Inhibition at 10 μM (BLK): −3.4%
% Inhibition at 10 μM (RET(Y791F)): −2.2%
% Inhibition at 10 μM (PDHK4): 11.0%
% Inhibition at 10 μM (EPHB3): −1.3%
% Inhibition at 10 μM (PKD2): −22.1%
% Inhibition at 10 μM (HIPK3): −7.6%
% Inhibition at 10 μM (MAP2K6_Cascade): 4.2%
% Inhibition at 10 μM (FRK): 0.9%
% Inhibition at 10 μM (TSSK2): −3.4%
% Inhibition at 10 μM (HIPK4): 2.1%
% Inhibition at 10 μM (NEK7): −1.0%
% Inhibition at 10 μM (CaMK2γ): −4.7%
% Inhibition at 10 μM (skMLCK): −2.5%
% Inhibition at 10 μM (DLK_Cascade): −1.1%
% Inhibition at 10 μM (RET(M918T)): −2.9%

CC(C)(C)Cc1[nH]nc2c1[C@](C)(c1ccccc1)C1=C(CC(C)(C)CC1=O)N2 [BRD3731]
% Inhibition 10 μM (MST1; 10 μM): 3.9%
% Inhibition 10 μM (JNK3; 10 μM): −2.6%
% Inhibition 10 μM (PGK; 10 μM): 1.9%
% Inhibition 10 μM (MINK; 10 μM): 2.2%
% Inhibition 10 μM (FGFR4(V550E); 10 μM): 0.1%
% Inhibition 10 μM (CK1α; 10 μM): −5.6%
% Inhibition 10 μM (CaMK1α; 10 μM): 4.7%
% Inhibition 10 μM (ALK(R1275Q); 10 μM): 1.9%
% Inhibition 10 μM (KDR; 10 μM): 7.1%
% Inhibition 10 μM (TAK1-TAB1_Cascade; 10 μM): 1.7%
% Inhibition 10 μM (NuaK1; 10 μM): −0.9%
IC50 (CDK2/CycA2; CDK2/CycA2): > 10000 nM
% Inhibition 10 μM (CDK2/CycA2; CDK2/CycA2, 10 μM): 36.3%
Fold Selectivity (CDK2/CycA2; IC50 CDK2/CycA2 / IC50 GSK3β): >370 fold
% Inhibition 10 μM (BRK; 10 μM): −5.6%
% Inhibition 10 μM (ROCK1; 10 μM): 0.8%
% Inhibition 10 μM (GSK3β): 100.7%
IC50 (GSK3β): 27 nM
% Inhibition 10 μM (EGFR(d746-750/T790M); 10 μM): 3.7%
% Inhibition 10 μM (IKKβ; 10 μM): 0.2%
% Inhibition 10 μM (SPHK1; 10 μM): 3.4%
% Inhibition 10 μM (MARK1; 10 μM): 9.3%
% Inhibition 10 μM (RSK4; 10 μM): 33.9%
% Inhibition 10 μM (RET(S891A); 10 μM): −0.6%
% Inhibition 10 μM (CDC2/CycB1; 10 μM): 27.8%
% Inhibition 10 μM (WNK3; 10 μM): 2.1%
% Inhibition 10 μM (BRAF(V600E)_Cascade; 10 μM): −5.2%
% Inhibition 10 μM (BLK; 10 μM): 4.9%
% Inhibition 10 μM (RET(Y791F); 10 μM): 9.5%
% Inhibition 10 μM (PDHK4; 10 μM): 24.2%
% Inhibition 10 μM (EPHB3; 10 μM): 0.1%
% Inhibition 10 μM (PKD2; 10 μM): 17.2%
% Inhibition 10 μM (HIPK3; 10 μM): 3.2%
% Inhibition 10 μM (MAP2K6_Cascade; 10 μM): 3.3%
% Inhibition 10 μM (FRK; 10 μM): 3.2%
% Inhibition 10 μM (TSSK2; 10 μM): 3.8%
% Inhibition 10 μM (HIPK4; 10 μM): 15.9%
% Inhibition 10 μM (NEK7; 10 μM): −3.2%
% Inhibition 10 μM (CaMK2γ; 10 μM): −1.2%
% Inhibition 10 μM (skMLCK; 10 μM): 9.4%
% Inhibition 10 μM (DLK_Cascade; 10 μM): 0.9%
% Inhibition 10 μM (RET(M918T); 10 μM): −2.2%
